The values below are quoted from earlier work in patent US20070218128A1, “Manufacturing of Quick Release Pharmaceutical Compositions of Water Insoluble Drugs and Pharmaceutical Compositions Obtained By the Process of the Invention” (priority 2004, published 2007).

For data set [1] the following is noted: approximate values; for pKa1 / pKa2 / pKa3: Table 1 amino acids; for pKa: Table 1 alkaline substances, refer to the pKa of the acid.
The conditions of data set [2]: for solubility in water and in 0.1 N HCl: water and 0.1 N HCl.

Where two headings read alike, the source gives them in different places.

On to `N=C(N)NCCC[C@H](N)C(=O)O` [Arginine], for which the pH entry (100 g/L H2O) is listed as “pH ≈ 11.4”. In addition, in data set [1], the pKa1 entry is “pKa1: 2.2”, the pKa2 entry is on record as “pKa2: 9.1” and the pKa3 result was “pKa3: 13.2”.

As for `COc1ccc2c3c1O[C@H]1[C@@H](O)C=C[C@H]4[C@@H](C2)N(C)CC[C@@]341` [Codeine, reference compound], for the setting “saturated solution”, the “pH in saturated solution” value was “solution ≈ 9.8)”.

Take `O=C([O-])[O-].[Na+].[Na+]` [Di-sodium carbonate]: the pKa (in general, the negative logarithm of the acid dissociation constant) in data set [1] is recorded as 10.3.

`N[C@@H](Cc1c[nH]cn1)C(=O)O` [Histidine]: the pH result (10 g/L H2O) is listed as “pH ≈ 7.7”. Also, in data set [1], the pKa1 result is “pKa1: 1.8”, the pKa2 result was “pKa2: 6.0” and the pKa3 result was “pKa3: 9.0”.

In the case of `NN` [Hydrazine], the pKa in data set [1] was 8.

For `NCCCC[C@H](N)C(=O)O` [Lysine], in data set [1], the pKa1 entry was “pKa1: 2.2” and the pKa2 entry is listed as “pKa2: 8.9”.

For the molecule `O=C([O-])/C=C/C(=O)[O-].[Na+].[Na+]` [Sodium fumerate], the pKa in data set [1] was 4.4.

On to `O=C([O-])/C=C\C(=O)[O-].[Na+].[Na+]` [Sodium maleate], for which, in data set [1], the pKa is 6.2.

Regarding `CC(=O)Oc1ccccc1C(=O)O` [acetylsalicylic acid], in data set [2] (room temperature), the “solubility in water and in 0.1 N HCl” value is listed as “practically insoluble”.

Turning to `COc1ccc2c(c1)c(CC(=O)O)c(C)n2C(=O)c1ccc(Cl)cc1` [indometacin], the “solubility in water and in 0.1 N HCl” value in data set [2] (room temperature) is on record as “practically insoluble”.

On to `CN1C(C(=O)Nc2ccccn2)=C(O)c2sc(Cl)cc2S1(=O)=O` [lornoxicam], for which the “solubility in 0.1 N HCl” value in data set [2] (0.1 N HCl) is reported as “less than 0.1 % w/v”. Moreover, the “solubility at a pH of 0.1 N HCl” value in data set [2] (0.1 N HCl, room temperature) is on record as “less than 1 mg/100 ml”.
